Test [1] deals with mexB (PA) strain. The test is described as follows: Combinational effect with antibacterial agent against Pseudomonas aeruginosa (Test Examples 2 and 4): mexB (PA) strain with LVFX, TC or AZT at 1/4 MIC, EC99. It counts as cell-based. To be noted: for EC99, combinational effect with AZT, mexB (PA) / EC99, combinational effect with LVFX, mexB (PA) / EC99, combinational effect with TC, mexB (PA): mexB (PA) strain, Test Example 4; for EC99, combinational effect with AZT, mexB (PA) / EC99, mexB (PA), AZT: combined with AZT at 1/4 MIC; for EC99, combinational effect with LVFX, mexB (PA) / EC99, mexB (PA), LVFX: combined with LVFX at 1/4 MIC; for EC99, combinational effect with TC, mexB (PA) / EC99, mexB (PA), TC: combined with TC at 1/4 MIC; for EC99, mexB (PA), AZT / EC99, mexB (PA), LVFX / EC99, mexB (PA), TC: Table 52, Test Example 2, 16 to 20 hours culture, OD595. In short, it runs like this: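 P. aeruginosa mexB (PA) strain, lacking MexCD-OprJ, MexEF-OprN and MexXY and overexpressing MexAB-OprM, grown 16–20 h in CAMHB (10^4–5 CFU/well) with LVFX, TC or AZT at ¼ MIC plus test compound at 0–800 μM. Growth read as OD595; EC99 is the lowest compound concentration giving ≥99% growth inhibition.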

Test [2] relates to S-3769 strain. In words: Combinational effect with antibacterial agent against Pseudomonas aeruginosa (Test Examples 2 and 4): S-3769 strain with AMK or GM at 1/4 MIC, EC99. Format: cell-based. To be noted: for EC99, combinational effect with AMK, S-3769 strain / EC99, S-3769 strain, AMK: combined with AMK at 1/4 MIC; for EC99, combinational effect with AMK, S-3769 strain / EC99, combinational effect with GM, S-3769 strain: Test Example 4; for EC99, combinational effect with GM, S-3769 strain / EC99, S-3769 strain, GM: combined with GM at 1/4 MIC; for EC99, S-3769 strain, AMK / EC99, S-3769 strain, GM: Table 52, Test Example 2, 16 to 20 hours culture, OD595. The procedure, abridged:
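P. aeruginosa S-3769 (clinical isolate, MexY overexpressed) grown 16–20 h in CAMHB, 10^4 to 5 CFU/well, with AMK or GM at ¼ MIC plus test compound 0–800 μM. Growth read as OD595; EC99 is the lowest compound concentration giving ≥99% growth inhibition.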

From patent US20250326744A1, “PIPERAZINE DERIVATIVE OR SALT THEREOF, AND PHARMACEUTICAL COMPOSITION” (priority 2022, published 2025) come the findings set out here.

Structures can show the parent of a compound that is named as a salt.

Take `CCOc1cccc(F)c1CN1CCN(C(=O)[C@H](N)C2CCN(CCc3cc(Cl)ccc3-c3cccc4ccccc34)CC2)CC1` [Example 548, Hydrobromide of (R)-2-amino-2-(1-(5-chloro-2-(naphthalen-1-yl)phenethyl)piperidin-4-yl)-1-(4-(2-ethoxy-6-fluorobenzyl)piperazin-1-yl)ethan-1-one]: in test [1], the “EC99, combinational effect with AZT, mexB (PA)” value (“EC99 … with AZT, mexB (PA)” below) was “A (12.5 μM<EC99≤25 μM)”; the “EC99, combinational effect with LVFX, mexB (PA)” value (from here on “EC99 … with LVFX, mexB (PA)”) is “S (EC99≤12.5 μM)”; the “EC99, combinational effect with TC, mexB (PA)” value (“EC99 … with TC, mexB (PA)” below) is “A (12.5 μM<EC99≤25 μM)”. For the same compound, in test [2], the “EC99, combinational effect with AMK, S-3769 strain” value (“EC99, combinational effect with AMK” for short) was “S (EC99≤12.5 μM)” and the “EC99, combinational effect with GM, S-3769 strain” value (from here on “EC99, combinational effect with GM”) is “A (12.5 μM<EC99≤25 μM)”.
Consider `CCOc1cccc(F)c1CN1CCN(C(=O)[C@H](N)C2CCN(CCc3cc(Cl)ccc3-c3ccccc3O)CC2)CC1` [Example 107, (R)-2-amino-2-(1-(2-(4-chloro-2′-hydroxy-[1,1′-biphenyl]-2-yl)ethyl)piperidin-4-yl)-1-(4-(2-ethoxy-6-fluorobenzyl)piperazin-1-yl)ethan-1-one], for which, in test [1], the “EC99, mexB (PA), AZT” value is “A (12.5 μM<EC99≤25 μM)”; the “EC99, mexB (PA), LVFX” value is reported as “A (12.5 μM<EC99≤25 μM)”; the “EC99, mexB (PA), TC” value was “A (12.5 μM<EC99≤25 μM)”. In test [2], the “EC99, S-3769 strain, AMK” value was “A (12.5 μM<EC99≤25 μM)” and the “EC99, S-3769 strain, GM” value is “A (12.5 μM<EC99≤25 μM)”.
As to `N[C@@H](C(=O)N1CCN(Cc2cccc3ccoc23)CC1)C1CCN(CCc2cc(Cl)ccc2-c2ccccc2)CC1` [Example 39, Hydrobromide of (R)-2-amino-1-(4-(benzofuran-7-ylmethyl)piperazin-1-yl)-2-(1-(2-(4-chloro-[1,1′-biphenyl]-2-yl)ethyl)piperidin-4-yl)ethan-1-one], in test [1], the “EC99, mexB (PA), AZT” value is listed as “A (12.5 μM<EC99≤25 μM)”; the “EC99, mexB (PA), LVFX” value is “B (25 μM<EC99≤100 μM)”; the “EC99, mexB (PA), TC” value is recorded as “A (12.5 μM<EC99≤25 μM)”. For the same compound, in test [2], the “EC99, S-3769 strain, AMK” value is given as “A (12.5 μM<EC99≤25 μM)” and the “EC99, S-3769 strain, GM” value is “B (25 μM<EC99≤100 μM)”.
As to `CCOc1cccc(F)c1CN1CCN(C(=O)[C@H](N)C2CCN(CCc3ccccc3F)CC2)CC1` [Example 121, Hydrochloride of (R)-2-amino-1-(4-(2-ethoxy-6-fluorobenzyl)piperazin-1-yl)-2-(1-(2-fluorophenethyl)piperidin-4-yl)ethan-1-one], in test [1], the “EC99, mexB (PA), AZT” value was “C (100 μM<EC99)”; the “EC99, mexB (PA), LVFX” value is “C (100 μM<EC99)”; the “EC99, mexB (PA), TC” value is reported as “C (100 μM<EC99)”. Further, in test [2], the “EC99, S-3769 strain, AMK” value is given as “B (25 μM<EC99≤100 μM)” and the “EC99, S-3769 strain, GM” value is listed as “B (25 μM<EC99≤100 μM)”.
Turning to `CCSc1cc(F)ccc1CN1CCN(C(=O)[C@H](N)C2CCN(CCc3cc(Cl)ccc3-c3cc(O)ccc3Cl)CC2)CC1` [Example 619, (R)-2-amino-2-(1-(2-(2′,4-dichloro-5′-hydroxy-[1,1′-biphenyl]-2-yl)ethyl)piperidin-4-yl)-1-(4-(2-(ethylthio)-4-fluorobenzyl)piperazin-1-yl)ethan-1-one], in test [1], the “EC99 … with AZT, mexB (PA)” value is recorded as “S (EC99≤12.5 μM)”; the “EC99 … with LVFX, mexB (PA)” value was “S (EC99≤12.5 μM)”; the “EC99 … with TC, mexB (PA)” value is reported as “S (EC99≤12.5 μM)”. Further, in test [2], the “EC99, combinational effect with AMK” value is “S (EC99≤12.5 μM)” and the “EC99, combinational effect with GM” value is recorded as “S (EC99≤12.5 μM)”.
As to `CCOc1cccc(F)c1CN1CCN(C(=O)[C@H](N)C2CCN(CCc3cc(Cl)ccc3-c3cncc(O)c3)CC2)CC1` [Example 572, Hydrochloride of (R)-2-amino-2-(1-(5-chloro-2-(5-hydroxypyridin-3-yl)phenethyl)piperidin-4-yl)-1-(4-(2-ethoxy-6-fluorobenzyl)piperazin-1-yl) ethan-1-one], in test [1], the “EC99 … with AZT, mexB (PA)” value is given as “B (25 μM<EC99≤100 μM)”; the “EC99 … with LVFX, mexB (PA)” value was “C (100 μM<EC99)”; the “EC99 … with TC, mexB (PA)” value is recorded as “B (25 μM<EC99≤100 μM)”. In test [2], the “EC99, combinational effect with AMK” value is given as “A (12.5 μM<EC99≤25 μM)” and the “EC99, combinational effect with GM” value is “A (12.5 μM<EC99≤25 μM)”.
